Structures can show the parent of a compound that is named as a salt.
System: lipid peroxidation in rat cerebral cortical homogeneates
Experiment: Inhibitory effect on lipid peroxidation in rat cerebral cortical homogenates (thiobarbituric acid method)
Type: biochemical
Conditions: lipoperoxide production in Jcl. Wistar rat cerebral cortex homogenate supernatant, 37° C. for 30 minutes, absorbance at 532 nm, vs DMSO-added group
Method: Inhibitory effect on lipid peroxidation in rat cerebral cortical homogeneates and oral administration to mouse.
Quantitative determination of lipoperoxide produced in brain homogenate was performed according to the method of Stocks et al. (Clin. Sci. Mol. Med. 47–215(1974)). As animals, brains of Jcl. Wistar male rats, 10–13 weeks age, were used. Rat cerebral cortices were obtained after decapitation, homogenized in an ice-cooled phosphate saline buffer (50 mM Ph 7.4) (Nichion Microhomogenizer, S-310E), centrifuged at 10,000 g for 10 minutes (Hitachi CF15D type, RT15A6 Anglerotor), and the supernatant was used in a test. This supernatant was diluted 3-fold with the same buffer. To this 1 mL were added 10 μL of test drugs dissolved in dimethyl sulfoxide (DMSO) to the final concentration of 0.0125, 0.025, 0.05, 0.10, 0.20, 0.40, 0.80 and 1.60 μM, respectively, which was incubated at 37° C. for 30 minutes. The reaction was stopped by addition of 200 μL of 35% perchloric acid, and centrifuged at 13,000 g for 10 minutes. To 1 mL of this supernatant was added 0.5 mL of 2-thiobarbituric acid (500 mg/100 mL) dissolved in 50% acetic acid, heated to boil at 95° C. for 15 minutes, which was determined by the absorbance at 532 nm. […]

| IC50 | SMILES |
| --- | --- |
| 127 nM | Cc1c(C)c2c(c3c1NC(C)(C)C3)CC(C)(C)O2 [Example 3, 1,6,7,8-Tetrahydro-2,2,4,5,7,7-hexamethyl-2H-furo [3,2-e]indole oxalate] |
| 57 nM | Cc1c(C)c2c(c3c1NC(C)(C)C3)CC(C)(CN1CCC(NC(c3ccccc3)c3ccccc3)CC1)O2 (centres unmarked) [Example 11, N-(Diphenylmethyl)-1-[(1,6,7,8-tetrahydro-2,4,5,7,7-pentamethyl-2H-furo[3,2-e]indol-2-yl)methyl]-4-piperidineamine dihydrochloride] |

Source: patent US7008940B1, “Dihydrobenzofuran derivatives, process for the preparing thereof and agents” (Takeda Pharmaceutical Company Limited, priority 1999, dated 2006)
